Where two headings read alike, the source gives them in different places.
How the values were obtained:
[1] = tested on: cold and restraint gastric ulcers; assay: Cold and restraint gastric ulcers in the rat; type: in vivo, rat (Wistar female); details: po, read-out: Cold and restraint gastric ulcers ED50
Protocol: cold and restraint gastric ulcers induced in the rat following the under mentioned method originally described by E. C. Senay and R. J. Levine in Proc. Soc.
Wistar female rats fasting from the previous evening are introduced in plastic tubes having such a diameter to exert a light constriction and immediately after they are put in a thermoregulated ambient at about 4° C. Two hours later the rats are sacrificed under ethereal anesthesia and their stomachs are examined to ascertain the presence of ulcers.
The ulcer index of each stomach is determined, multiplying the number of gastric lesions of any kind by a corresponding arbitrary value (petechiae=0.5; punctiform ulcer=1; linear ulcer<2 mm=2; linear ulcer>2 mm=3) and adding the partial scores. Rats are treated with the compound under study half an hour before cold exposure.

[2] = tested on: acetylsalicylic acid and pylorus ligation gastric ulcers; assay: Acetylsalicylic acid and pylorus ligation gastric ulcers in the rat; type: in vivo, rat (Wistar male); details: read-out: Acetylsalicylic acid and pylorus ligation gastric ulcers ED50
Protocol: Wistar male rats, weighing 160-200 g, fasting from the previous evening are administered intraduodenum with the compound under study immediately after pylorus ligation under light ethereal anesthesia. Two hours after treatment rats receive orally 50 mg/kg of acetylsalicylic acid, dissolved in 5% gum arabic solution. An hour later rats are sacrificed under ether anesthesia and stomachs examined for presence of ulcers.

[3] = tested on: gastric secretion (hydrochloric acid); assay: Activity on gastric secretion in Shay rats (total acidity); type: in vivo, rat (Wistar male); details: Rattus norvegicus, read-out: Shay rats total acidity ED50
Protocol: Wistar male rats, weighing 160-200 g, starved for 24 hours are treated orally with the compound under study after pylorus ligation under light ethereal anesthesia. 4 hours later rats are anesthetized with ether and after oesophagus ligation, the stomachs are removed and the contents collected. After centrifugation of the gastric juice, the quantity of hydrochloric acid is determined by titration with 0.01 N Sodium hydroxide, using phenolphthalein as indicator.

[4] = tested on: indomethacin gastric ulcers; assay: Indomethacin gastric ulcers in the rat; type: in vivo, rat (Wistar male); details: po, read-out: Indomethacin gastric ulcers ED50
Protocol: indomethacin gastric ulcers, induced in the rat following the under mentioned method originally described by Y. H. Lee, K. W. Mollison, W. C. Cheng in Arch. Int. Pharmacodyn.
Wistar male rats, weighing 160-200 g, starved for 24 hours, are administered endoperitoneally with 30 mg/kg of indomethacin in 0.6% aqueous suspension of 1% gum arabic solution and immediately after they are treated orally with the compound under study. 5 hours later animals are sacrificed under ethereal anesthesia, the stomachs are removed, open along the great curvature and examined for the presence of ulcers. The ulcer index is expressed in terms of square root of the number of gastric ulcers.

[5] = os, half an hour before cold exposure, dose reducing the ulcer index by 50% compared with controls
[6] = intraduodenum immediately after pylorus ligation, dose reducing the number of ulcers by 50% compared with controls
[7] = i.d. (Table 2 head), 4 hours after pylorus ligation, dose reducing secretion of hydrochloric acid by 50% compared with controls
[8] = os, 30 mg/kg indomethacin endoperitoneally, dose reducing the ulcer index by 50% compared with controls

Row | Compound | ED50 [1, 5] [mg/kg] | ED50 [2, 6] [mg/kg] | ED50 [3, 7] [mg/kg] | ED50 [4, 8] [mg/kg] | ED50 [1] [mg/kg] | ED50 [2] [mg/kg] | ED50 ([3]; 4 h) [mg/kg] | ED50 [4] [mg/kg]
1 | CNC(=NC#N)NCCSCc1cnc2ccccn12 [Ia] | 2.8 | 7.3 | 1.8 | 3.4 | – | – | – | –
2 | CNC(=NC#N)NCCSCc1c(C)nc2ccccn12 [Ib] | 1.5 | 2.1 | 1.1 | 0.7 | – | – | – | –
3 | CNC(=NC#N)NCCSC(C)c1cnc2ccccn12 (centres unmarked) [Ic] | 1.9 | 5.7 | 2.8 | 3.3 | – | – | – | –
4 | CNC(=NC#N)NCCSC(C)c1c(C)nc2ccccn12 (centres unmarked) [Id] | 0.7 | 0.9 | 0.6 | 0.9 | – | – | – | –
5 | CN/C(=N/CCSCc1nc[nH]c1C)NC#N [[…], Cimetidine, reference compound] | – | – | – | – | 6.3 | 3.8 | 0.6 | 2.4
